Values after ≈ are worked out from the molar mass of the structure shown.

Here are results for 1 compound from patent US20220162169A1, “6-OXO-1,6-DIHYDROPYRIDAZINE PRODRUG DERIVATIVE, PREPARATION METHOD THEREFOR, AND APPLICATION THEREOF IN MEDICINE” (JIANGSU HENGRUI MEDICINE CO., LTD., priority 2019, published 2022).

A short description of data set [1]: Solubility in PBS solution (pH 7.4) at room temperature. The format is physicochemical. The settings on record: PBS solution (pH 7.4), aqueous buffer, kinetic from dmso stock; PBS pH 7.4, room temperature, 24 hours shaking, 1% DMSO, average of two measurements; read-out: Solubility in PBS pH7.4. As to the method: Test Example 1. Solubility of the Compound of the Present Disclosure in PBS Solution (pH 7.4) at Room Temperature
2.1 Formulation of the PBS solution (pH 7.4): 0.57 g of NaH2PO42.H2O, 5.55 g of Na2HPO4.12H2O and 6.48 g of NaCl were weighed, followed by the addition of ultra-pure water. The pH was adjusted to 7.4±0.05 with 1 M NaOH or 1 M HCl. Water was added until the volume reached 1 L. The PBS solution was stored in a refrigerator at 4° C. (the storage life was 6 months).
2.2 Formulation of the solution of the compound in PBS 7.4: An appropriate amount of the test compound was weighed, and dissolved in DMSO or a mixed solution of DMSO:acetonitrile:ethanol (1:1:1) to obtain a 10 mM stock solution of the test compound. 10 μL of the stock solution of the test compound and 990 μL of the PBS solution (pH 7.4) were precisely measured and placed in a 2 mL sample vial and mixed well, and the DMSO concentration of the final solution was 1% (v/v). This solution was formulated in duplicate, shaken on a plate bed at room temperature for 24 hours, and centrifuged at 5000 rpm for 20 minutes. The supernatant was analyzed by the liquid chromatograph.
2.3 Formulation of the reference solution: 10 μL of the stock solution of the test sample (concentration: 10 mM, dissolved in DMSO) and 990 μL of an organic mixed solvent (usually DMSO:acetonitrile:ethanol=1:1:1) were precisely measured and placed in a 2 mL sample vial, and mixed well to obtain a clear 100 μM sample solution. The solution was filtered through a 0.45 μm organic phase microporous filter membrane, and the filtrate was analyzed by the liquid chromatograph.
Solubility (μM)=peak area of the sample/peak area of the reference*concentration of the reference (μM)*sample solution dilution factor
The average of two measurements was used as the final solubility.

Data set [2] can be described thus: Pharmacokinetics assay in SD rats after intragastric administration, plasma LC/MS/MS. The format is in vivo. As to the method:
Test Example 2. Pharmacokinetics Assay of the Compounds of the Present Disclosure in Rats
SD rats were used as test animals. The drug concentration in plasma at different time points was determined by LC/MS/MS method after oral administration of the compounds of Example 2, Example 6 and Example 7 to SD rats. The pharmacokinetic behavior of the compounds of the present disclosure was studied and evaluated in SD rats.
Forty SD rats (half male and half female, equally divided into ten groups) were purchased from Shanghai Jiesijie Laboratory Animal Co., LTD. (Certificate No.: SCXK(Shanghai) 2013-0006).
An appropriate amount of the compound of Example 2 was weighed, followed by the addition of 5% of DMSO, 5% of tween 80 and 90% of normal saline successively to obtain a colorless, clear and transparent solution.
An appropriate amount of the compound of Example 2 was weighed, followed by the addition of 0.5% sodium carboxymethyl cellulose (containing 0.5% tween 80) to obtain a white homogeneous suspension.
An appropriate amount of the compound of Example 6 was weighed, and added to 200 mM (5% PVPK30+5% TPGS) Na2HPO4 solution (pH=9) to obtain a homogeneous suspension.
An appropriate amount of the compound of Example 7 was weighed, and added to 200 mM (5% PVPK30+5% TPGS) Na2HPO4 solution (pH=9) to obtain a homogeneous suspension.
After an overnight fast, the SD rats were intragastrically administered the test compounds. Regarding to the compound of Example 2 (formulation: 5% of DMSO, 5% of tween 80 and 90% of normal saline), the administration dose was 2 mg/kg, the administration volume was 10 mL/kg, and the administration concentration was 0.2 mg/mL. Regarding to the compound of Example 2 (formulation: 0.5% sodium carboxymethyl cellulose (containing 0.5% tween 80)), the administration dose was 10, 30, 100 mg/kg, the administration volume was 10 mL/kg, and the administration concentration was 1, 3, 10 mg/mL. Regarding to the compound of Example 6, the administration dose was 100, 300, 900 mg/kg, the administration volume was 10 mL/kg, and the administration concentration was 10, 30, 90 mg/mL. Regarding to the compound of Example 7, the administration dose was 10, 30, 100 mg/kg, the administration volume was 10 mL/kg, and the administration concentration was 1, 3, 10 mg/mL.
After an overnight fast, the SD rats were intragastrically administered the test compounds. 0.2 ml of blood was taken from the orbit before the administration and at 0.5, 1.0, 2.0, 4.0, 6.0, 8.0, 11.0 and 24.0 hours after the administration. The samples were stored in heparinized tubes, and centrifuged for 10 minutes at 3500 rpm to separate the blood plasma. The plasma samples were stored at −20° C. The SD rats were fed 2 hours after the administration.
The content of the test compound in the plasma of SD rats after administration of the test compound at different concentrations was determined: 25 μL of SD rat plasma at each time point after the administration was taken, followed by the addition of 50 μL of the internal standard camptothecin solution (100 ng/mL) and 200 μL of acetonitrile. The resulting solution was vortex-mixed for 5 minutes, and centrifuged for 10 minutes (3700 rpm). 3.0 μL of the supernatant was taken from the plasma samples of the compound of Example 2 (the group at the administration dose of 2 mg/kg) for LC/MS/MS analysis. 2.0 μL of the supernatant was taken from the plasma samples of the compound of Example 2 (the group at the administration dose of 10, 30, or 100 mg/kg) for LC/MS/MS analysis. 0.2 μL of the supernatant was taken from the plasma samples of the compound of Example 6 for LC/MS/MS analysis. 1 μL of the supernatant was taken from the plasma samples of the compound of Example 7 for LC/MS/MS analysis. […]

The target of data set [3] is T1, NaV1.8 ion channel (Homo sapiens, UniProt Q9Y5Y9).
T1 construct: expressed in transfected cells
T1 sequence (Q9Y5Y9 whole entry): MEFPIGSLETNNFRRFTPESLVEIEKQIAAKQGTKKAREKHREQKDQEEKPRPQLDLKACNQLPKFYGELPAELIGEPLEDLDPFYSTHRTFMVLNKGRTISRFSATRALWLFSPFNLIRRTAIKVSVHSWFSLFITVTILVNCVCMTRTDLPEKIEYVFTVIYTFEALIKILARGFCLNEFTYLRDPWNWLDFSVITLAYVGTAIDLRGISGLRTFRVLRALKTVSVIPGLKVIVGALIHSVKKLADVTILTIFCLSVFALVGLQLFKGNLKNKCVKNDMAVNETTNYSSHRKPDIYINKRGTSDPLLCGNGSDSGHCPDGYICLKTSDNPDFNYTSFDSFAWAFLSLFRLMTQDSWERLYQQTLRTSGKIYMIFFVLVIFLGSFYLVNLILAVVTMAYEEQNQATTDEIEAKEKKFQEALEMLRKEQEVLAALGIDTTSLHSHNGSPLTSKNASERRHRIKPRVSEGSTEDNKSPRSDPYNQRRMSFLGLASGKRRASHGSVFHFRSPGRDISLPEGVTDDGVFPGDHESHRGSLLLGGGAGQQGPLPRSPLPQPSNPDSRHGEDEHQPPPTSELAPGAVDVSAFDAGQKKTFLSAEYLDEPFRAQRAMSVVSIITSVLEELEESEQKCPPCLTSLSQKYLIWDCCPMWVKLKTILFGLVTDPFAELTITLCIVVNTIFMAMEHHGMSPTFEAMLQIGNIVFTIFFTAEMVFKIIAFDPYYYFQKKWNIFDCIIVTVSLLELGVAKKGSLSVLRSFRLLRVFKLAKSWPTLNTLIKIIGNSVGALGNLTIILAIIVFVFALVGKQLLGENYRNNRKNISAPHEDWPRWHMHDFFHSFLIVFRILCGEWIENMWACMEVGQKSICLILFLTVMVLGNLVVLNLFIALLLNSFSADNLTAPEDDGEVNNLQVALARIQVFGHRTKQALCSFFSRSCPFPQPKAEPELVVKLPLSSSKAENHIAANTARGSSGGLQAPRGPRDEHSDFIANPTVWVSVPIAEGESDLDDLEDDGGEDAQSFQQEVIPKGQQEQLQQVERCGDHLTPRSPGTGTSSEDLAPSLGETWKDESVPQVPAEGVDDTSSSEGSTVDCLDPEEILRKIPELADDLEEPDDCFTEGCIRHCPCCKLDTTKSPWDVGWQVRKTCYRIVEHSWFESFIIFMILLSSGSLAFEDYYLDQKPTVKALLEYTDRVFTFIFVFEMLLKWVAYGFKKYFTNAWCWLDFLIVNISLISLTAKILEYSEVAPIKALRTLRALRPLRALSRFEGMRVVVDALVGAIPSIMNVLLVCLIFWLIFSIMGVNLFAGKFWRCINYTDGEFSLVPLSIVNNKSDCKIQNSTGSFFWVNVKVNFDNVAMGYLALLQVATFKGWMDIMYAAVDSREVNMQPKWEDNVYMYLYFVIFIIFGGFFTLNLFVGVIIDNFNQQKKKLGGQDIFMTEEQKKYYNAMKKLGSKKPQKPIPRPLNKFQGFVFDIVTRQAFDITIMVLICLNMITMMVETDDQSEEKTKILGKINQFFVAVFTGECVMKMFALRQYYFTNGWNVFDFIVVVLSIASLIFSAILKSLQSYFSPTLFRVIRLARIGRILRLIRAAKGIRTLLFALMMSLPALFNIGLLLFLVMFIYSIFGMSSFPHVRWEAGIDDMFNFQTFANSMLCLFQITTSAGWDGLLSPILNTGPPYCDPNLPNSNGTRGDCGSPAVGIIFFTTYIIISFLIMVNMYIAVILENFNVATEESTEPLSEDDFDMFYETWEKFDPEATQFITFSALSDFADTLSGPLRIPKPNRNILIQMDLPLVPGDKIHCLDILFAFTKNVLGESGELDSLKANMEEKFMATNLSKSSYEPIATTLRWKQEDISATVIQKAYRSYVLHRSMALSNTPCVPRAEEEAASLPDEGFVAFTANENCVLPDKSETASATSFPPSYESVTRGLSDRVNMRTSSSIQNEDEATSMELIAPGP
Nature of the data set: Manual patch clamp, inhibitory activity on NaV1.8 stably expressed on HEK293 cells. The following applies: HEK293 cells stably expressing NaV1.8, manual patch clamp, resting protocol (clamped at -80 mV, depolarized to 10 mV), 1 μM TTX; read-out: IC50 on inhibiting the Nav1.8 channel activity. The data set is classed as cell-based. The text has this: Test Example 3. Determination of the Inhibitory Activity of the Compounds of the Present Disclosure on NaV1.8
The purpose of the experiment is to investigate the effect of the compounds on NaV1.8 ion channel in an in vitro experiment, wherein the NaV1.8 ion channel is stably expressed on HEK293 cells. After the NaV1.8 current becomes stable, the NaV1.8 currents before and after the administration of the compound are compared so as to obtain the effect of the compound on the NaV1.8 ion channel.
Except for NaOH and KOH used for acid titration and base titration, all the compounds used for formulating the extracellular fluid and intracellular fluid were purchased from Sigma (St. Louis, Mo.). Extracellular fluid (mM): NaCl, 137; KCl, 4; CaCl2, 1.8; MgCl2, 1; HEPES, 10; glucose, 10; pH 7.4 (NaOH titration). Intracellular fluid (mM): aspartic acid, 140; MgCl2, 2; EGTA, 11; HEPES, 10; pH 7.2 (CsOH titration). All solutions of test compound and control compound contained 1 μM TTX.
The test compound was dissolved in dimethyl sulfoxide (DMSO) at a stock concentration of 9 mM. The stock solution of the test compound was dissolved in the extracellular fluid on the day of the test and formulated into the required concentration.
1) The compound was formulated into solutions with specified concentrations, the solutions were added to the pipelines respectively in order from low to high concentration, and the pipelines were marked.
2) The cell was transferred to the perfusion tank. A positive pressure was applied to the electrode. The tip of the electrode touched the cell. The three-way valve of the air extracting device was adjusted to a three-way state. […]
The cell was clamped at −80 mV. […] The maximum current caused by the square wave was measured. […] After the response became stable, the blocking intensity was calculated. […]
The inhibitory activity of the compounds of the present disclosure on NaV1.8 was determined by the above test, and the resulting IC50 values are shown in Table 3.

Consider `[2H]C([2H])([2H])Oc1cc(F)ccc1Oc1cc(C(F)(F)F)c(Cl)cc1C(=O)Nc1cnn(COC(=O)CCC(=O)O)c(=O)c1` [Example 7, 4-((4-(5-Chloro-2-(4-fluoro-2-(methoxy-d3)phenoxy)-4-(trifluoromethyl)benzamido)-6-oxopyridazin-1(6H)-yl)methoxy)-4-oxobutanoic acid], for which, in data set [1], the solubility at 24 h came to 34.5 µM (≈ 20.4 µg/mL). The “Detection of the administered prodrug compound itself in rat plasma” value in data set [2] (after intragastric administration, LC/MS/MS) is reported as “not detected”. The “In vivo conversion of the prodrug into its metabolite” value in data set [2] (intragastric administration) is “converted into compound 7d in vivo”. Besides, the IC50 in data set [3] came out at 14.5 nM.
